{
  "source": "the kinase profiling compilation of Christmann-Franck et al. (2016)",
  "test_in_all_cases": "KINOMEscan competition binding",
  "settings_in_all_cases": "compound 10.0 µM",
  "key": {"MAP2K4 (human)": {"biological_target": "MAP2K4 (human) (UniProt P45985)"}, "FLT3 (human)": {"biological_target": "FLT3 (human) (UniProt P36888)", "sequence (P36888 whole entry, looked up)": "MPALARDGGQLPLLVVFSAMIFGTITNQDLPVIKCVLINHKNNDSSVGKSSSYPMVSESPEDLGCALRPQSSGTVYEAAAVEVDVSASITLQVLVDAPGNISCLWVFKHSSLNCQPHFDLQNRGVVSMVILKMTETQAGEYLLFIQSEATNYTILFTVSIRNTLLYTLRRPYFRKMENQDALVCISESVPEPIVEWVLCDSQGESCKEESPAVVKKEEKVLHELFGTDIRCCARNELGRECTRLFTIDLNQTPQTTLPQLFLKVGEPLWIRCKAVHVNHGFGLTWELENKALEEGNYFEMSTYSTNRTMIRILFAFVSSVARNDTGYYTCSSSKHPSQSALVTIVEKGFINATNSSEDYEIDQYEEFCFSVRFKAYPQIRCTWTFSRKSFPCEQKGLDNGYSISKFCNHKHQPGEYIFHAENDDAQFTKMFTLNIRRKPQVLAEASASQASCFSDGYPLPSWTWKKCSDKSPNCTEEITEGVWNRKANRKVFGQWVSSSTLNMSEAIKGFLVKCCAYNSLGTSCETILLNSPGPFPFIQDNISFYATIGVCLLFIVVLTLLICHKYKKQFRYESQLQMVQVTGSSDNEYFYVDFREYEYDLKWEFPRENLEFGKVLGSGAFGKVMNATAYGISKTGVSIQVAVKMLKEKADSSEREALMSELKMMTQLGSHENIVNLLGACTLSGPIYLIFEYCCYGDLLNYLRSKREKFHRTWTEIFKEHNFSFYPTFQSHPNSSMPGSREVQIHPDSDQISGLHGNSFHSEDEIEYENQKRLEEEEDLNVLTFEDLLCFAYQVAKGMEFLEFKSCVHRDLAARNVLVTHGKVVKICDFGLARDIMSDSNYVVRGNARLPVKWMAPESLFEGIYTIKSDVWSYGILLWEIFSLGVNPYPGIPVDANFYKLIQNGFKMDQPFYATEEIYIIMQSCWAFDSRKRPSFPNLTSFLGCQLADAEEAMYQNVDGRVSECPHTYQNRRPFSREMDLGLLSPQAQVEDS"}, "LCK (human)": {"biological_target": "LCK (human) (UniProt P06239)"}, "FGFR2 (human)": {"biological_target": "FGFR2 (human) (UniProt P21802)"}, "FER (human)": {"biological_target": "FER (human) (UniProt P16591)"}, "[1]": {"tested_on": "EIF2AK4 KD2 (human), Q9P2K8 [S808G]"}, "CSNK1G1 (human)": {"biological_target": "CSNK1G1 (human) (UniProt Q9HCP0)", "sequence (Q9HCP0 whole entry, looked up)": "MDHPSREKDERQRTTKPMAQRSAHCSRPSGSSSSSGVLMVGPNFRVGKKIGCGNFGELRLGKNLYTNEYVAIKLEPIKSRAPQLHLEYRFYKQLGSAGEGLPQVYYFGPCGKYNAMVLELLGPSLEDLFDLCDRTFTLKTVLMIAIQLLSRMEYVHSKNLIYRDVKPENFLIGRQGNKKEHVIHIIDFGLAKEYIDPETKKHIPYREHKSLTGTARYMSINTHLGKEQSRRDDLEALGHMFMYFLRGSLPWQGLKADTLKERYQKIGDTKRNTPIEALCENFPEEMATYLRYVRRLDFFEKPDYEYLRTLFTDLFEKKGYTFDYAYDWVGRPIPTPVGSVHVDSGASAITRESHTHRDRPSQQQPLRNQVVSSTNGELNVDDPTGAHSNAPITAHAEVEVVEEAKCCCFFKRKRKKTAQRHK"}, "MAP2K6 (human)": {"biological_target": "MAP2K6 (human) (UniProt P52564)"}, "DYRK1B (human)": {"biological_target": "DYRK1B (human) (UniProt Q9Y463)", "sequence (Q9Y463 whole entry, looked up)": "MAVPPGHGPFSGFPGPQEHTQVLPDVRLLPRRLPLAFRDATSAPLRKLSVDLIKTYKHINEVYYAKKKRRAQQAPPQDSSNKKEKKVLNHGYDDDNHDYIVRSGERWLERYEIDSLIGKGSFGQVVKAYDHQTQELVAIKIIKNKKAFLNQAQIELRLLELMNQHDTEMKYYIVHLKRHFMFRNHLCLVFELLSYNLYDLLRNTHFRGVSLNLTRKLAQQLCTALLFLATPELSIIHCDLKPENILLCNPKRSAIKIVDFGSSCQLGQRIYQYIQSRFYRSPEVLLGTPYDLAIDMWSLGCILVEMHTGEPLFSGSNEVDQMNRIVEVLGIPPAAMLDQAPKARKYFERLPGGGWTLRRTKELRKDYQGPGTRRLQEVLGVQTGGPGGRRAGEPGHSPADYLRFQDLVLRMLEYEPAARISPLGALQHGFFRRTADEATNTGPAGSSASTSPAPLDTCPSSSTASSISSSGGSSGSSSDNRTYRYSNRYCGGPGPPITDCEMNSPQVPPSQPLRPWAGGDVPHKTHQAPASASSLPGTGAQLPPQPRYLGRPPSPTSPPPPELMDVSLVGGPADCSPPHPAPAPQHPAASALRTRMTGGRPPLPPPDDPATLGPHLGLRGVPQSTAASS"}, "NTRK1 (human)": {"biological_target": "NTRK1 (human) (UniProt P04629)"}, "RPS6KA1 KD1 (human)": {"biological_target": "RPS6KA1 KD1 (human) (UniProt Q15418)"}, "PIM2 (human)": {"biological_target": "PIM2 (human) (UniProt Q9P1W9)"}, "FES (human)": {"biological_target": "FES (human) (UniProt P07332)"}, "EPHA8 (human)": {"biological_target": "EPHA8 (human) (UniProt P29322)", "sequence (P29322 whole entry, looked up)": "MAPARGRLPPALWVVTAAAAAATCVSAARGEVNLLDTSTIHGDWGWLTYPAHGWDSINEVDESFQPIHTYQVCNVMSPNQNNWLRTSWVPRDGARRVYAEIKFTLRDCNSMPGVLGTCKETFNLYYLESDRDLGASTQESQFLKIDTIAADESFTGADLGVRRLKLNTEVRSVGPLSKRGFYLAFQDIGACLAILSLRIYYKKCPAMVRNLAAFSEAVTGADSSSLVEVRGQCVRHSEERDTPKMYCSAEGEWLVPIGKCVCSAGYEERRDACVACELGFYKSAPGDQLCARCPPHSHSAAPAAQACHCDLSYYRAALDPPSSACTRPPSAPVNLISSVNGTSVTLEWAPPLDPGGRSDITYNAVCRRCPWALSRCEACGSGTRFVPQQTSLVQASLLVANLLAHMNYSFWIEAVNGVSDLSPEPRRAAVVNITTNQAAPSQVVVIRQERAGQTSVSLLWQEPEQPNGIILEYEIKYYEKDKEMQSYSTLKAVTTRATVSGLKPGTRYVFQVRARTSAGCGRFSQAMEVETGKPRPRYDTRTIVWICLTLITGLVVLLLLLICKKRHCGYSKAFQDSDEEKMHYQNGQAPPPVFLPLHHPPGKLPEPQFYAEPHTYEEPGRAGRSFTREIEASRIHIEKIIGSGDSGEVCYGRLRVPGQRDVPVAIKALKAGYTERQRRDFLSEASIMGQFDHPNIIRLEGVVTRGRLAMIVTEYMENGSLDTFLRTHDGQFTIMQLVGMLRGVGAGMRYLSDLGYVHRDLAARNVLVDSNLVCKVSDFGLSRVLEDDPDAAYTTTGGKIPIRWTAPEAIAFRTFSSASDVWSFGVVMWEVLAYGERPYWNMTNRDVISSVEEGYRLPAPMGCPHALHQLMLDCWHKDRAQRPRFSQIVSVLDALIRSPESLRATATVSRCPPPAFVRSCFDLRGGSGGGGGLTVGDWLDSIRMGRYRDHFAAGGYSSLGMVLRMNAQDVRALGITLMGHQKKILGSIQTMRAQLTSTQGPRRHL"}, "STK38L (human)": {"biological_target": "STK38L (human) (UniProt Q9Y2H1)", "sequence (Q9Y2H1 whole entry, looked up)": "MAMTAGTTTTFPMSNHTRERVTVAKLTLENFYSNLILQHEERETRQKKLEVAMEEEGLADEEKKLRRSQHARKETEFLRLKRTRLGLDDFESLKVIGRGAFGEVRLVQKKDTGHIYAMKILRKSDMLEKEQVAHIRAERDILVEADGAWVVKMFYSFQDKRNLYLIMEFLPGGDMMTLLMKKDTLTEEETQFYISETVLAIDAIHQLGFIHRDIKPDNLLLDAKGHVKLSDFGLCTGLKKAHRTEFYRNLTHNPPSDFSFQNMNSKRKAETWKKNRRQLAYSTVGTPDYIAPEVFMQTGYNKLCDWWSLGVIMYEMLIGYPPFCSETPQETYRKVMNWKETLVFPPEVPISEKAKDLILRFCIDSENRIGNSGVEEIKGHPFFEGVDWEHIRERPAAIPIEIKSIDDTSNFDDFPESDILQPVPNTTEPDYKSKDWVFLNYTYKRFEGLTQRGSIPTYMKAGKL"}, "BLK (human)": {"biological_target": "BLK (human) (UniProt P51451)"}, "NTRK3 (human)": {"biological_target": "NTRK3 (human) (UniProt Q16288)", "sequence (Q16288 whole entry, looked up)": "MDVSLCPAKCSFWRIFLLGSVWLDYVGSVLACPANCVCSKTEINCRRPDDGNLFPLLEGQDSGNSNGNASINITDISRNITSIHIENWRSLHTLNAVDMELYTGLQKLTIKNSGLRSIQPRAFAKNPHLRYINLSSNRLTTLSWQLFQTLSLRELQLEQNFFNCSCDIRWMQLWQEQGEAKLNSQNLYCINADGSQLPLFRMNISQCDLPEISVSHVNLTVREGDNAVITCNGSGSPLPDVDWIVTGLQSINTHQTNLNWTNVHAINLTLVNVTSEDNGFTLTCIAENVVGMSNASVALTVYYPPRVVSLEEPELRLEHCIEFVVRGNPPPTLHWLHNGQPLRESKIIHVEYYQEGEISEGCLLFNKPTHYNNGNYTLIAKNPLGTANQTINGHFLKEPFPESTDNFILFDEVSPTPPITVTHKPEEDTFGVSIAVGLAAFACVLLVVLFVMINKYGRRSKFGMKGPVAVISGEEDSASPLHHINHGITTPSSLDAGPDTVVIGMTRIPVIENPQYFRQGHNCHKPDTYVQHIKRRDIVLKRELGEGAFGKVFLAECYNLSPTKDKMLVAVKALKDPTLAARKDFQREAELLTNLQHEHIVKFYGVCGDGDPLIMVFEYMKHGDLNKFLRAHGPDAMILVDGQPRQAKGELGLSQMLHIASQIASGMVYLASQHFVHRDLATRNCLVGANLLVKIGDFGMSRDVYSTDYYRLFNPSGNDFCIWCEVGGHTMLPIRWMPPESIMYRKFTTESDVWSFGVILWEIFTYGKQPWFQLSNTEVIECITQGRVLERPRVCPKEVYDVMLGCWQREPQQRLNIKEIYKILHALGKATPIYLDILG"}, "TAOK3 (human)": {"biological_target": "TAOK3 (human) (UniProt Q9H2K8)"}, "MLTK (human)": {"biological_target": "MLTK (human) (UniProt Q9NYL2)"}, "GSK3B (human)": {"biological_target": "GSK3B (human) (UniProt P49841)"}, "SLK (human)": {"biological_target": "SLK (human) (UniProt Q9H2G2)"}, "STK16 (human)": {"biological_target": "STK16 (human) (UniProt O75716)"}, "FGFR3 (human)": {"biological_target": "FGFR3 (human) (UniProt P22607)"}, "BMPR1B (human)": {"biological_target": "BMPR1B (human) (UniProt O00238)"}, "RPS6KA3 KD1 (human)": {"biological_target": "RPS6KA3 KD1 (human) (UniProt P51812)"}, "MINK1 (human)": {"biological_target": "MINK1 (human) (UniProt Q8N4C8)"}, "MAP4K1 (human)": {"biological_target": "MAP4K1 (human) (UniProt Q92918)"}, "PDGFRA (human)": {"biological_target": "PDGFRA (human) (UniProt P16234)"}, "SRMS (human)": {"biological_target": "SRMS (human) (UniProt Q9H3Y6)"}, "DCLK1 (human)": {"biological_target": "DCLK1 (human) (UniProt O15075)"}, "MAPK10 (human)": {"biological_target": "MAPK10 (human) (UniProt P53779)"}, "PAK7 (human)": {"biological_target": "PAK7 (human) (UniProt Q9P286)"}, "MAP2K2 (human)": {"biological_target": "MAP2K2 (human) (UniProt P36507)"}, "GAK (human)": {"biological_target": "GAK (human) (UniProt O14976)"}, "EPHA1 (human)": {"biological_target": "EPHA1 (human) (UniProt P21709)"}, "TTK (human)": {"biological_target": "TTK (human) (UniProt P33981)"}, "MAP3K10 (human)": {"biological_target": "MAP3K10 (human) (UniProt Q02779)"}, "PAK4 (human)": {"biological_target": "PAK4 (human) (UniProt O96013)"}, "STK32B (human)": {"biological_target": "STK32B (human) (UniProt Q9NY57)", "sequence (Q9NY57 whole entry, looked up)": "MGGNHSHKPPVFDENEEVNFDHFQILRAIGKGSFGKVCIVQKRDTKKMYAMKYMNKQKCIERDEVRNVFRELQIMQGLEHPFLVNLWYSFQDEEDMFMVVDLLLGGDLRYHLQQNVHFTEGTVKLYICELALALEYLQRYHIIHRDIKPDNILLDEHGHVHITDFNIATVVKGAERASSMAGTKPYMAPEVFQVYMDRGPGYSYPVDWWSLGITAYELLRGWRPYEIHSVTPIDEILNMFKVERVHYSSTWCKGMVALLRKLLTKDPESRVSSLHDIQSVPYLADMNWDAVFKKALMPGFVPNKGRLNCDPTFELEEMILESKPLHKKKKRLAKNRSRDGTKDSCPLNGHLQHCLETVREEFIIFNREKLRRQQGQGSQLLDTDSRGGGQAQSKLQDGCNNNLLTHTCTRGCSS"}},
  "data": [
    {"smiles": "CCCS(=O)(=O)Nc1ccc(F)c(C(=O)c2c[nH]c3ncc(-c4ccc(Cl)cc4)cc23)c1F", "values": [
      {"measurement": "kinase still bound, per cent of control", "setting": "MAP2K4 (human)", "result": 5, "unit": "%"},
      {"measurement": "kinase still bound, per cent of control", "setting": "FLT3 (human)", "result": 2.4, "unit": "%"},
      {"measurement": "kinase still bound, per cent of control", "setting": "LCK (human)", "result": 1.6, "unit": "%"},
      {"measurement": "kinase still bound, per cent of control", "setting": "FGFR2 (human)", "result": 64, "unit": "%"},
      {"measurement": "kinase still bound, per cent of control", "setting": "FER (human)", "result": 54, "unit": "%"},
      {"measurement": "kinase still bound, per cent of control", "setting": "[1]", "result": 0.55, "unit": "%"},
      {"measurement": "kinase still bound, per cent of control", "setting": "CSNK1G1 (human)", "result": 100, "unit": "%"},
      {"measurement": "kinase still bound, per cent of control", "setting": "MAP2K6 (human)", "result": 57, "unit": "%"},
      {"measurement": "kinase still bound, per cent of control", "setting": "DYRK1B (human)", "result": 100, "unit": "%"},
      {"measurement": "kinase still bound, per cent of control", "setting": "NTRK1 (human)", "result": 90, "unit": "%"},
      {"measurement": "kinase still bound, per cent of control", "setting": "RPS6KA1 KD1 (human)", "result": 57, "unit": "%"},
      {"measurement": "kinase still bound, per cent of control", "setting": "PIM2 (human)", "result": 96, "unit": "%"},
      {"measurement": "kinase still bound, per cent of control", "setting": "FES (human)", "result": 41, "unit": "%"},
      {"measurement": "kinase still bound, per cent of control", "setting": "EPHA8 (human)", "result": 83, "unit": "%"},
      {"measurement": "kinase still bound, per cent of control", "setting": "STK38L (human)", "result": 100, "unit": "%"},
      {"measurement": "kinase still bound, per cent of control", "setting": "BLK (human)", "result": 2.2, "unit": "%"},
      {"measurement": "kinase still bound, per cent of control", "setting": "NTRK3 (human)", "result": 65, "unit": "%"},
      {"measurement": "kinase still bound, per cent of control", "setting": "TAOK3 (human)", "result": 74, "unit": "%"},
      {"measurement": "kinase still bound, per cent of control", "setting": "MLTK (human)", "result": 7.4, "unit": "%"},
      {"measurement": "kinase still bound, per cent of control", "setting": "GSK3B (human)", "result": 100, "unit": "%"},
      {"measurement": "kinase still bound, per cent of control", "setting": "SLK (human)", "result": 1.4, "unit": "%"},
      {"measurement": "kinase still bound, per cent of control", "setting": "STK16 (human)", "result": 84, "unit": "%"},
      {"measurement": "kinase still bound, per cent of control", "setting": "FGFR3 (human)", "result": 93, "unit": "%"},
      {"measurement": "kinase still bound, per cent of control", "setting": "BMPR1B (human)", "result": 67, "unit": "%"},
      {"measurement": "kinase still bound, per cent of control", "setting": "RPS6KA3 KD1 (human)", "result": 76, "unit": "%"},
      {"measurement": "kinase still bound, per cent of control", "setting": "MINK1 (human)", "result": 38, "unit": "%"},
      {"measurement": "kinase still bound, per cent of control", "setting": "MAP4K1 (human)", "result": 20, "unit": "%"},
      {"measurement": "kinase still bound, per cent of control", "setting": "PDGFRA (human)", "result": 0.45, "unit": "%"},
      {"measurement": "kinase still bound, per cent of control", "setting": "SRMS (human)", "result": 0.05, "unit": "%"},
      {"measurement": "kinase still bound, per cent of control", "setting": "DCLK1 (human)", "result": 88, "unit": "%"},
      {"measurement": "kinase still bound, per cent of control", "setting": "MAPK10 (human)", "result": 91, "unit": "%"},
      {"measurement": "kinase still bound, per cent of control", "setting": "PAK7 (human)", "result": 78, "unit": "%"},
      {"measurement": "kinase still bound, per cent of control", "setting": "MAP2K2 (human)", "result": 5.4, "unit": "%"},
      {"measurement": "kinase still bound, per cent of control", "setting": "GAK (human)", "result": 84, "unit": "%"},
      {"measurement": "kinase still bound, per cent of control", "setting": "EPHA1 (human)", "result": 82, "unit": "%"},
      {"measurement": "kinase still bound, per cent of control", "setting": "TTK (human)", "result": 57, "unit": "%"},
      {"measurement": "kinase still bound, per cent of control", "setting": "MAP3K10 (human)", "result": 73, "unit": "%"},
      {"measurement": "kinase still bound, per cent of control", "setting": "PAK4 (human)", "result": 86, "unit": "%"},
      {"measurement": "kinase still bound, per cent of control", "setting": "STK32B (human)", "result": 100, "unit": "%"}
    ]}
  ]
}
